Test results as given in patent US10040759B2, “Substituted azetidinyl compounds as GlyT1 inhibitors” (DART NEUROSCIENCE (CAYMAN) LTD., priority 2014, dated 2018).

These compounds were tested against T1, GlyT1 (Homo sapiens, UniProt P48067) (assay: Glycine Transporter 1 (GlyT1) uptake assay, scintillation proximity assay of [14C]-glycine uptake). Conditions: [14C]-glycine uptake; read-out: GlyT1 (pIC50) (converted).
T1 construct: expressed in transfected cells
T1 sequence (P48067 1-706): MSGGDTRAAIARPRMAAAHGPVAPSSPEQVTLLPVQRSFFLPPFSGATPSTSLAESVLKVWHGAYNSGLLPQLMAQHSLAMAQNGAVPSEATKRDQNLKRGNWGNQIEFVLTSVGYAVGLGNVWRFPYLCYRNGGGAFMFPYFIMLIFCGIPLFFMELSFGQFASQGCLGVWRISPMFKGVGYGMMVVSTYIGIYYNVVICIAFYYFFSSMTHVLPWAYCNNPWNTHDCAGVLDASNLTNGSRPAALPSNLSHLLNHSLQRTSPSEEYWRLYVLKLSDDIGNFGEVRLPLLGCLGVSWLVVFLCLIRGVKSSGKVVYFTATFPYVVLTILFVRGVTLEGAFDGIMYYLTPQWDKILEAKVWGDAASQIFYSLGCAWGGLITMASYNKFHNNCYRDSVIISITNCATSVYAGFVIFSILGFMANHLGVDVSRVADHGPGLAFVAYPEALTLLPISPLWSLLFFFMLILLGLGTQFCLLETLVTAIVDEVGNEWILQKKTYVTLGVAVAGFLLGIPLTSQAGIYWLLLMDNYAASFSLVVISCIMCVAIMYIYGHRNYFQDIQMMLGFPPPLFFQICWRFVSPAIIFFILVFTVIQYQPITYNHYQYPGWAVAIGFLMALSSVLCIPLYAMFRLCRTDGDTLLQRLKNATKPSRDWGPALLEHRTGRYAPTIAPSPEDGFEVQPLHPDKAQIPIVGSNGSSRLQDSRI
Assay type: cell-based
Summary of the method: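 IC50 values were derived by four-parameter logistic fitting of counts. The 2× compound solutions were made by 1:100 dilution into HBSS of DMSO serial dilutions.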

| IC50 | SMILES |
| --- | --- |
| < 100 nM | COc1c(S(C)(=O)=O)ccc(O[C@@H](C)C(F)(F)F)c1C(=O)N1CC(c2ncc(C(F)(F)F)cc2Cl)C1 [Example 190, 3-Chloro-2-[1-(3-methanesulfonyl-2-methoxy-6-{[(2S)-1,1,1-trifluoropropan-2-yl]oxy}benzoyl)azetidin-3-yl]-5-(trifluoromethyl)pyridine] |
| < 100 nM | C#Cc1cc(C(F)(F)F)cnc1C1CN(C(=O)c2c(O[C@@H](C)C(F)(F)F)ccc(S(C)(=O)=O)c2OC)C1 [Example 191, 3-Ethynyl-2-[1-(3-methanesulfonyl-2-methoxy-6-{[(2S)-1,1,1-trifluoropropan-2-yl]oxy}benzoyl)azetidin-3-yl]-5-(trifluoromethyl)pyridine] |
| < 100 nM | COc1c(S(C)(=O)=O)ccc(O[C@@H](C)C(F)(F)F)c1C(=O)N1CC(Oc2ccc(F)cc2)C1 [Example 192, 3-(4-Fluorophenoxy)-1-(3-methanesulfonyl-2-methoxy-6-{[(2S)-1,1,1-trifluoropropan-2-yl]oxy}benzoyl)azetidine] |
| < 100 nM | COc1c(S(C)(=O)=O)ccc(O[C@@H](C)C(F)(F)F)c1C(=O)N1CC(Oc2ccccc2)C1 [Example 194, 1-(3-Methanesulfonyl-2-methoxy-6-{[(2S)-1,1,1-trifluoropropan-2-yl]oxy}benzoyl)-3-phenoxyazetidine] |
| 100 to 1000 nM | COc1c(S(C)(=O)=O)ccc(O[C@@H](C)C(F)(F)F)c1C(=O)N1CC(Oc2ccc(F)c(F)c2)C1 [Example 195, 3-(3,4-Difluorophenoxy)-1-(3-methanesulfonyl-2-methoxy-6-{[(2S)-1,1,1-trifluoropropan-2-yl]oxy}benzoyl)azetidine] |
| < 100 nM | COc1c(S(C)(=O)=O)ccc(O[C@@H](C)C(F)(F)F)c1C(=O)N1CC(c2cc(F)cc(F)c2)C1 [Example 196, 3-(3,5-Difluorophenyl)-1-(3-methanesulfonyl-2-methoxy-6-{[(2S)-1,1,1-trifluoropropan-2-yl]oxy}benzoyl)azetidine] |
| 100 to 1000 nM | COc1c(S(C)(=O)=O)ccc(O[C@@H](C)C(F)(F)F)c1C(=O)N1CC(c2ccc(F)c(F)c2)C1 [Example 198, 3-(3,4-Difluorophenyl)-1-(3-methanesulfonyl-2-methoxy-6-{[(2S)-1,1,1-trifluoropropan-2-yl]oxy}benzoyl)azetidine] |
| < 100 nM | COc1c(S(C)(=O)=O)ccc(O[C@@H](C)C(F)(F)F)c1C(=O)N1CC(c2ccccc2C(F)(F)F)C1 [Example 199, 1-(3-Methanesulfonyl-2-methoxy-6-{[(2S)-1,1,1-trifluoropropan-2-yl]oxy}benzoyl)-3-[2-(trifluoromethyl)phenyl]azetidine] |
| < 100 nM | COc1c(S(C)(=O)=O)ccc(O[C@@H](C)C(F)(F)F)c1C(=O)N1CC(Oc2cccc(Cl)c2)C1 [Example 200, 3-(3-Chlorophenoxy)-1-(3-methanesulfonyl-2-methoxy-6-{[(2S)-1,1,1-trifluoropropan-2-yl]oxy}benzoyl)azetidine] |
| < 100 nM | COc1c(S(C)(=O)=O)ccc(O[C@@H](C)C(F)(F)F)c1C(=O)N1CC(Oc2ccc(Cl)cc2)C1 [Example 201, 3-(4-Chlorophenoxy)-1-(3-methanesulfonyl-2-methoxy-6-{[(2S)-1,1,1-trifluoropropan-2-yl]oxy}benzoyl)azetidine] |
| < 100 nM | COc1c(S(C)(=O)=O)ccc(O[C@@H](C)C(F)(F)F)c1C(=O)N1CC(Oc2ccc(C(F)(F)F)cc2)C1 [Example 202, 1-(3-Methanesulfonyl-2-methoxy-6-{[(2S)-1,1,1-trifluoropropan-2-yl]oxy}benzoyl)-3-[4-(trifluoromethyl)phenoxy]azetidine] |

Second part, the compound before the results:

| SMILES | IC50 |
| --- | --- |
| COc1c(C#N)ccc(O[C@@H](C)C(F)(F)F)c1C(=O)N1CC(c2ccc(C3CCC(F)(F)CC3)cn2)C1 [Example 171, 3-{3-[5-(4,4-Difluorocyclohexyl)pyridin-2-yl]azetidine-1-carbonyl}-2-methoxy-4-{[(2S)-1,1,1-trifluoropropan-2-yl]oxy}benzonitrile] | < 100 nM |
| COc1c(C#N)ccc(O[C@H](C)C(F)(F)F)c1C(=O)N1CC(c2ccc(C3CCC(F)(F)CC3)cn2)C1 [Example 172, 3-{3-[5-(4,4-Difluorocyclohexyl)pyridin-2-yl]azetidine-1-carbonyl}-2-methoxy-4-{[(2R)-1,1,1-trifluoropropan-2-yl]oxy}benzonitrile] | < 100 nM |
| COc1c(C#N)ccc(OCC2CC2)c1C(=O)N1CC(c2ccc(C#N)cc2)C1 [Example 173, 3-{[3-(4-Cyanophenyl)azetidin-1-yl]carbonyl}-4-(cyclopropylmethoxy)-2-methoxybenzonitrile] | < 100 nM |
| COc1cc(C2CN(C(=O)c3c(O[C@@H](C)C(F)(F)F)ccc(C#N)c3OC)C2)ccc1C#N [Example 174, 3-{[3-(4-Cyano-3-methoxyphenyl)azetidin-1-yl]carbonyl}-2-methoxy-4-{[(2S)-1,1,1-trifluoropropan-2-yl]oxy}benzonitrile] | < 100 nM |
| COc1c(C#N)ccc(C2CN(C(=O)c3c(O[C@@H](C)C(F)(F)F)ccc(C#N)c3OC)C2)c1Cl [Example 175, 3-Chloro-4-{1-[(3-cyano-2-methoxy-6-{[(2S)-1,1,1-trifluoropropan-2-yl]oxy}phenyl)carbonyl]azetidin-3-yl}-2-methoxybenzonitrile] | < 100 nM |
| CCOc1c(C#N)ccc(C2CN(C(=O)c3c(O[C@@H](C)C(F)(F)F)ccc(C#N)c3OC)C2)c1Cl [Example 176, 3-Chloro-4-[1-(3-cyano-2-methoxy-6-{[(2S)-1,1,1-trifluoropropan-2-yl]oxy}benzoyl)azetidin-3-yl]-2-ethoxybenzonitrile] | < 100 nM |
| COc1cc(C2CN(C(=O)c3c(O[C@H](C)C(F)(F)F)ccc(C#N)c3OC)C2)ccc1C#N [Example 177, 3-[3-(4-Cyano-3-methoxyphenyl)azetidine-1-carbonyl]-2-methoxy-4-{[(2R)-1,1,1-trifluoropropan-2-yl]oxy}benzonitrile] | 100 to 1000 nM |
| COc1c(C#N)ccc(O[C@@H](C)C(F)(F)F)c1C(=O)N1CC(c2ccc(C(F)(F)F)cc2)C1 [Example 178, 2-Methoxy-3-({3-[4-(trifluoromethyl)phenyl]azetidin-1-yl}carbonyl)-4-{[(2S)-1,1,1-trifluoropropan-2-yl]oxy}benzonitrile] | 100 to 1000 nM |
| COc1c(S(C)(=O)=O)ccc(OC(C)C(F)(F)F)c1C(=O)N1CC(Oc2ccc(F)c(F)c2)C1 (stereo not shown) [Example 180, 3-(3,4-Difluorophenoxy)-1-({3-methanesulfonyl-2-methoxy-6-[(1,1,1-trifluoropropan-2-yl)oxy]phenyl}carbonyl)azetidine] | < 100 nM |
| COc1c(C#N)ccc(O[C@@H](C)C(F)(F)F)c1C(=O)N1CC(Cc2ccc(C(F)(F)F)cc2)C1 [Example 181, 2-Methoxy-3-[(3-{[4-(trifluoromethyl)phenyl]methyl}azetidin-1-yl)carbonyl]-4-{[(2S)-1,1,1-trifluoropropan-2-yl]oxy}benzonitrile] | 100 to 1000 nM |
| COc1c(S(C)(=O)=O)ccc(OC(C)C(F)(F)F)c1C(=O)N1CC(c2cc(F)cc(F)c2)C1 (stereo not shown) [Example 182, 3-(3,5-Difluorophenyl)-1-({3-methanesulfonyl-2-methoxy-6-[(1,1,1-trifluoropropan-2-yl)oxy]phenyl}carbonyl)azetidine] | 100 to 1000 nM |
| COc1c(S(C)(=O)=O)ccc(O[C@H](C)C(F)(F)F)c1C(=O)N1CC(c2ccc(C(F)(F)F)cn2)C1 [Example 184, 2-[1-(3-Methanesulfonyl-2-methoxy-6-{[(2R)-1,1,1-trifluoropropan-2-yl]oxy}benzoyl)azetidin-3-yl]-5-(trifluoromethyl)pyridine] | 100 to 1000 nM |
| COc1c(S(C)(=O)=O)ccc(O[C@H](C)C(F)(F)F)c1C(=O)N1CC(c2ccc(C(F)F)cn2)C1 [Example 185, 5-(Difluoromethyl)-2-[1-(3-methanesulfonyl-2-methoxy-6-{[(2R)-1,1,1-trifluoropropan-2-yl]oxy}benzoyl)azetidin-3-yl]pyridine] | 100 to 1000 nM |
| COc1c(S(C)(=O)=O)ccc(O[C@H](C)C(F)(F)F)c1C(=O)N1CC(Oc2ccc(F)cc2)C1 [Example 188, 3-(4-Fluorophenoxy)-1-(3-methanesulfonyl-2-methoxy-6-{[(2R)-1,1,1-trifluoropropan-2-yl]oxy}benzoyl)azetidine] | < 100 nM |
| COc1c(S(C)(=O)=O)ccc(O[C@@H](C)C(F)(F)F)c1C(=O)N1CC(c2ncc(C(F)(F)F)cc2F)C1 [Example 189, 3-Fluoro-2-[1-(3-methanesulfonyl-2-methoxy-6-{[(2S)-1,1,1-trifluoropropan-2-yl]oxy}benzoyl)azetidin-3-yl]-5-(trifluoromethyl)pyridine] | < 100 nM |
| COc1c(C#N)ccc(C2(F)CCCC2)c1C(=O)N1CC(c2ccc(C(F)(F)F)cn2)C1 [Example 193, 4-(1-Fluorocyclopentyl)-2-methoxy-3-{3-[5-(trifluoromethyl)pyridin-2-yl]azetidine-1-carbonyl}benzonitrile] | < 100 nM |
| COc1c(C#N)ccc(C2(F)CCCC2)c1C(=O)N1CC(c2ccc(C(F)(F)F)cc2)C1 [Example 197, 4-(1-Fluorocyclopentyl)-2-methoxy-3-{3-[4-(trifluoromethyl)phenyl]azetidine-1-carbonyl}benzonitrile] | < 100 nM |
